Measured values reported in the supplement of paper PMC8617591.

Assays:
[1] = tested on: Mycobacterium tuberculosis Erdman (autoluminescent); experiment: GRinf, maximum normalised growth rate inhibition (three-drug combination) (unitless (-1 to 1)); higher = less effect (negative = killing)
Experimental: (§1)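 DiaMOND equipotent three-drug combination dose responses (10 doses, 1.5- or 2-fold spacing, centred on IC90) against autoluminescent M. tuberculosis Erdman in 8 in vitro models. Read-out is OD600, or luminescence for the intracellular and dormancy models, normalised to untreated wells. Hill-fit Einf, AUC25 and GRinf are potency metrics; FIC50 and FIC90 are total Loewe fractional inhibitory concentrations as log2 (negative = synergy).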

[2] = tested on: Mycobacterium tuberculosis Erdman (autoluminescent); experiment: Einf, fitted maximum growth inhibition of three-drug combination (fraction); higher = stronger maximal inhibition
Experimental: as §1

[3] = tested on: Mycobacterium tuberculosis Erdman (autoluminescent); experiment: total FIC90 (Loewe) at 90% inhibition, three-drug combination (log2); higher = more antagonistic
Experimental: as §1

[4] = tested on: Mycobacterium tuberculosis Erdman (autoluminescent); experiment: total FIC50 (Loewe) at 50% inhibition, three-drug combination (log2); higher = more antagonistic
Experimental: as §1

[5] = tested on: Mycobacterium tuberculosis Erdman (autoluminescent); experiment: AUC25, normalised area under dose response up to IC25 (three-drug combination) (fraction (0-1)); higher = more potent at low dose
Experimental: as §1

O=[N+]([O-])c1cn2c(n1)OC[C@@H](OCc1ccc(OC(F)(F)F)cc1)C2 [pretomanid] + NC(=O)c1cnccn1 [pyrazinamide] + CO[C@H]1/C=C/O[C@@]2(C)Oc3c(C)c(O)c4c(O)c(c(/C=N/N5CCN(C6CCCC6)CC5)c(O)c4c3C2=O)NC(=O)/C(C)=C\C=C\[C@H](C)[C@H](O)[C@@H](C)[C@@H](O)[C@@H](C)[C@H](OC(C)=O)[C@@H]1C [rifapentine]
Settings | AUC25, [5] | Einf, [2] | GRinf, [1] | total FIC50, [4] | total FIC90, [3]
in vitro model: acidic pH 5.7, time point: constant (~7 days, model-specific) | 0.0839 | 0.9 | -0.227 | -0.141 | –
in vitro model: acidic pH 5.7, time point: terminal (~4-5 doublings, model-specific) | 0.0799 | 0.992 | -0.234 | -0.0208 | -0.284
in vitro model: intracellular J774, time point: constant = terminal | – | 0.98 | -0.184 | – | 0.00169

Settings | AUC25, [5] | Einf, [2] | GRinf, [1] | total FIC50, [4] | total FIC90, [3]
in vitro model: butyrate, time point: constant (~7 days, model-specific) | 0.101 | 0.889 | 0.102 | 0.0451 | -0.0718
in vitro model: butyrate, time point: terminal (~4-5 doublings, model-specific) | 0.0909 | 0.956 | 0.0745 | 0.0568 | 0.587
in vitro model: cholesterol 0.05 mM, time point: constant (~7 days, model-specific) | 0.118 | 0.768 | -0.296 | – | –
in vitro model: cholesterol 0.05 mM, time point: terminal (~4-5 doublings, model-specific) | 0.103 | 0.936 | -0.415 | 1.28 | –
in vitro model: cholesterol-high 0.2 mM, time point: constant (~7 days, model-specific) | 0.0849 | 0.919 | -0.211 | 0.553 | –
in vitro model: cholesterol-high 0.2 mM, time point: terminal (~4-5 doublings, model-specific) | 0.0594 | 0.999 | -0.626 | 1.12 | 0.566
in vitro model: dormancy (butyrate + nitrate, low O2), time point: constant (~7 days, model-specific) | 0.0875 | 0.881 | 0.197 | 0.097 | 0.142
in vitro model: dormancy (butyrate + nitrate, low O2), time point: terminal (~4-5 doublings, model-specific) | 0.0996 | 0.995 | -0.152 | -0.593 | 0.838
in vitro model: standard 7H9 glycerol, time point: constant = terminal | 0.0581 | 0.893 | 0.139 | -0.0175 | –
in vitro model: valerate, time point: constant (~7 days, model-specific) | 0.0881 | 0.855 | 0.0565 | 0.0684 | –
in vitro model: valerate, time point: terminal (~4-5 doublings, model-specific) | 0.0574 | 0.918 | 0.0492 | 0.378 | -0.054

O=[N+]([O-])c1cn2c(n1)OC[C@@H](OCc1ccc(OC(F)(F)F)cc1)C2 [pretomanid] + NC(=O)c1cnccn1 [pyrazinamide] + CO[C@H]1/C=C/O[C@@]2(C)Oc3c(C)c(O)c4c(O)c(c(/C=N/N5CCN(C)CC5)c(O)c4c3C2=O)NC(=O)/C(C)=C\C=C\[C@H](C)[C@H](O)[C@@H](C)[C@@H](O)[C@@H](C)[C@H](OC(C)=O)[C@@H]1C [rifampicin]
Settings | AUC25, [5] | Einf, [2] | GRinf, [1] | total FIC50, [4] | total FIC90, [3]
in vitro model: acidic pH 5.7, time point: constant (~7 days, model-specific) | 0.0685 | 0.907 | -0.202 | 0.112 | –
in vitro model: acidic pH 5.7, time point: terminal (~4-5 doublings, model-specific) | 0.0533 | 0.988 | -0.228 | 0.156 | -0.637
in vitro model: intracellular J774, time point: constant = terminal | – | 0.981 | -0.237 | – | -0.273

Settings | AUC25, [5] | Einf, [2] | GRinf, [1] | total FIC50, [4] | total FIC90, [3]
in vitro model: butyrate, time point: constant (~7 days, model-specific) | 0.1 | 0.875 | 0.153 | -0.0322 | –
in vitro model: butyrate, time point: terminal (~4-5 doublings, model-specific) | 0.098 | 0.943 | 0.0978 | -0.158 | 0.429
in vitro model: cholesterol 0.05 mM, time point: constant (~7 days, model-specific) | 0.109 | 0.694 | -0.0437 | – | –
in vitro model: cholesterol 0.05 mM, time point: terminal (~4-5 doublings, model-specific) | 0.0891 | 0.895 | -0.0945 | 1.25 | –
in vitro model: cholesterol-high 0.2 mM, time point: constant (~7 days, model-specific) | 0.071 | 0.867 | -0.142 | 0.75 | –
in vitro model: cholesterol-high 0.2 mM, time point: terminal (~4-5 doublings, model-specific) | 0.0574 | 0.997 | -0.5 | 1.36 | 0.673
in vitro model: dormancy (butyrate + nitrate, low O2), time point: constant (~7 days, model-specific) | 0.0775 | 0.863 | 0.209 | -0.0806 | -0.525
in vitro model: dormancy (butyrate + nitrate, low O2), time point: terminal (~4-5 doublings, model-specific) | 0.0697 | 0.983 | -0.11 | -0.485 | -0.0518
in vitro model: standard 7H9 glycerol, time point: constant = terminal | 0.0634 | 0.897 | 0.147 | -0.426 | –
in vitro model: valerate, time point: constant (~7 days, model-specific) | 0.0616 | 0.854 | 0.084 | 0.491 | –
in vitro model: valerate, time point: terminal (~4-5 doublings, model-specific) | 0.0376 | 0.933 | 0.0442 | 0.477 | -0.0725

NC(=O)c1cnccn1 [pyrazinamide] + CO[C@H]1/C=C/O[C@@]2(C)Oc3c(C)c(O)c4c(O)c(c(/C=N/N5CCN(C6CCCC6)CC5)c(O)c4c3C2=O)NC(=O)/C(C)=C\C=C\[C@H](C)[C@H](O)[C@@H](C)[C@@H](O)[C@@H](C)[C@H](OC(C)=O)[C@@H]1C [rifapentine] + CO[C@H]1/C=C/O[C@@]2(C)Oc3c(C)c(O)c4c(O)c(c(/C=N/N5CCN(C)CC5)c(O)c4c3C2=O)NC(=O)/C(C)=C\C=C\[C@H](C)[C@H](O)[C@@H](C)[C@@H](O)[C@@H](C)[C@H](OC(C)=O)[C@@H]1C [rifampicin]
Settings | AUC25, [5] | Einf, [2] | GRinf, [1] | total FIC50, [4] | total FIC90, [3]
in vitro model: acidic pH 5.7, time point: constant (~7 days, model-specific) | 0.0803 | 0.896 | -0.145 | -0.178 | –
in vitro model: acidic pH 5.7, time point: terminal (~4-5 doublings, model-specific) | 0.0647 | 0.979 | -0.174 | -0.202 | -1.03
in vitro model: intracellular J774, time point: constant = terminal | – | 0.97 | -0.213 | – | -0.0544

Settings | AUC25, [5] | Einf, [2] | GRinf, [1] | total FIC50, [4] | total FIC90, [3]
in vitro model: butyrate, time point: constant (~7 days, model-specific) | 0.117 | 0.881 | 0.12 | 0.0365 | 1.12
in vitro model: butyrate, time point: terminal (~4-5 doublings, model-specific) | 0.103 | 0.952 | 0.104 | 0.198 | 0.732
in vitro model: cholesterol 0.05 mM, time point: constant (~7 days, model-specific) | 0.115 | 0.629 | 0.0861 | – | –
in vitro model: cholesterol 0.05 mM, time point: terminal (~4-5 doublings, model-specific) | 0.0851 | 0.89 | -0.108 | 0.707 | –
in vitro model: cholesterol-high 0.2 mM, time point: constant (~7 days, model-specific) | 0.0773 | 0.925 | -0.227 | 0.97 | –
in vitro model: cholesterol-high 0.2 mM, time point: terminal (~4-5 doublings, model-specific) | 0.0817 | 1 | -0.793 | 1.26 | 1.04
in vitro model: dormancy (butyrate + nitrate, low O2), time point: constant (~7 days, model-specific) | 0.083 | 0.871 | 0.235 | -0.0928 | -0.329
in vitro model: dormancy (butyrate + nitrate, low O2), time point: terminal (~4-5 doublings, model-specific) | 0.0472 | 0.977 | -0.125 | -0.147 | -0.16
in vitro model: standard 7H9 glycerol, time point: constant = terminal | 0.0549 | 0.884 | 0.17 | -0.259 | –
in vitro model: valerate, time point: constant (~7 days, model-specific) | 0.0552 | 0.833 | 0.0781 | 0.198 | –
in vitro model: valerate, time point: terminal (~4-5 doublings, model-specific) | 0.0295 | 0.925 | 0.0607 | 0.142 | -0.0108
